In PMC12951562, “SH2scan: Mapping SH2 Domain-Ligand Binding Selectivity for Inhibitors and Degraders” (Journal of Medicinal Chemistry, 2026):
Non-standard residues stand in square brackets, D forms with d. Residues, ends and D or L forms follow the SMILES beside them. pY = N[C@@H](Cc1ccc(OP(=O)(O)O)cc1)C(=O)O

Key:
Test in all cases: biochemical
Type in all cases: binding
TNS1 = molecular target: T1, TNS1 (Homo sapiens, UniProt Q9HBL0)
T1 construct: made in house; host or cells: HEK293 (transient transfection), unpurified extract

CRK = molecular target: T2, CRK (Homo sapiens, UniProt P46108)
T2 construct: the DNA-tagged SH2 domain concentrations used in this study were <0.1 nM; made in house; host or cells: HEK293 (transient transfection; unpurified extract)

CSK = molecular target: T3, CSK (Homo sapiens, UniProt P41240); conditions: primary screen, 10 μM
T3 construct: the DNA-tagged SH2 domain concentrations used in this study were <0.1 nM; made in house; host or cells: HEK293 (transient transfection; unpurified extract)
T3 sequence (P41240 82-171 limits assumed): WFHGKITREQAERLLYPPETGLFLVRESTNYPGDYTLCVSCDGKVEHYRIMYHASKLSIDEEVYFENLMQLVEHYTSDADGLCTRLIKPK

FGR = molecular target: T4, FGR (Homo sapiens, UniProt P09769)
T4 construct: the DNA-tagged SH2 domain concentrations used in this study were <0.1 nM; made in house; host or cells: HEK293 (transient transfection; unpurified extract)

FYN = molecular target: T5, FYN (Homo sapiens, UniProt P06241)
T5 construct: the DNA-tagged SH2 domain concentrations used in this study were <0.1 nM; made in house; host or cells: HEK293 (transient transfection; unpurified extract)

GRB7 = molecular target: T6, GRB7 (Homo sapiens, UniProt Q14451)
T6 construct: the DNA-tagged SH2 domain concentrations used in this study were <0.1 nM; made in house; host or cells: HEK293 (transient transfection; unpurified extract)

HCK = molecular target: T7, HCK (Homo sapiens, UniProt P08631)
T7 construct: the DNA-tagged SH2 domain concentrations used in this study were <0.1 nM; made in house; host or cells: HEK293 (transient transfection, unpurified extract)

NCK1 = molecular target: T8, NCK1 (Homo sapiens, UniProt P16333)
T8 construct: the DNA-tagged SH2 domain concentrations used in this study were <0.1 nM; made in house; host or cells: HEK293 (transient transfection, unpurified extract)

PIK3R2(SH2dom.N-term.) = molecular target: T9, PIK3R2(SH2dom.N-term.) (Homo sapiens, UniProt O00459)
T9 construct: SH2dom.N-term. denotes SH2 domain closest to N-terminus of protein; made in house; host or cells: HEK293 (transient transfection, unpurified extract)

PLCG1(SH2dom.N-term.) = molecular target: T10, PLCG1(SH2dom.N-term.) (Homo sapiens, UniProt P19174)
T10 construct: SH2dom.N-term. denotes SH2 domain closest to N-terminus of protein; made in house; host or cells: HEK293 (transient transfection, unpurified extract)
T10 sequence (P19174 550-657 limits assumed): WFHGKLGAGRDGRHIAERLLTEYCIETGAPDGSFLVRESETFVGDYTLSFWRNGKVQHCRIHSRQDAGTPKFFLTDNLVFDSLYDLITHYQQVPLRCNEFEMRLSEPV

SH2D6 = molecular target: T11, SH2D6 (Homo sapiens, UniProt Q7Z4S9)
T11 construct: made in house; host or cells: HEK293 (transient transfection), unpurified extract

SHIP1 = molecular target: T12, SHIP1 (Homo sapiens, UniProt Q92835); conditions: primary screen, 10 μM
T12 construct: made in house; host or cells: HEK293 (transient transfection), unpurified extract
T12 sequence (Q92835 1-1189): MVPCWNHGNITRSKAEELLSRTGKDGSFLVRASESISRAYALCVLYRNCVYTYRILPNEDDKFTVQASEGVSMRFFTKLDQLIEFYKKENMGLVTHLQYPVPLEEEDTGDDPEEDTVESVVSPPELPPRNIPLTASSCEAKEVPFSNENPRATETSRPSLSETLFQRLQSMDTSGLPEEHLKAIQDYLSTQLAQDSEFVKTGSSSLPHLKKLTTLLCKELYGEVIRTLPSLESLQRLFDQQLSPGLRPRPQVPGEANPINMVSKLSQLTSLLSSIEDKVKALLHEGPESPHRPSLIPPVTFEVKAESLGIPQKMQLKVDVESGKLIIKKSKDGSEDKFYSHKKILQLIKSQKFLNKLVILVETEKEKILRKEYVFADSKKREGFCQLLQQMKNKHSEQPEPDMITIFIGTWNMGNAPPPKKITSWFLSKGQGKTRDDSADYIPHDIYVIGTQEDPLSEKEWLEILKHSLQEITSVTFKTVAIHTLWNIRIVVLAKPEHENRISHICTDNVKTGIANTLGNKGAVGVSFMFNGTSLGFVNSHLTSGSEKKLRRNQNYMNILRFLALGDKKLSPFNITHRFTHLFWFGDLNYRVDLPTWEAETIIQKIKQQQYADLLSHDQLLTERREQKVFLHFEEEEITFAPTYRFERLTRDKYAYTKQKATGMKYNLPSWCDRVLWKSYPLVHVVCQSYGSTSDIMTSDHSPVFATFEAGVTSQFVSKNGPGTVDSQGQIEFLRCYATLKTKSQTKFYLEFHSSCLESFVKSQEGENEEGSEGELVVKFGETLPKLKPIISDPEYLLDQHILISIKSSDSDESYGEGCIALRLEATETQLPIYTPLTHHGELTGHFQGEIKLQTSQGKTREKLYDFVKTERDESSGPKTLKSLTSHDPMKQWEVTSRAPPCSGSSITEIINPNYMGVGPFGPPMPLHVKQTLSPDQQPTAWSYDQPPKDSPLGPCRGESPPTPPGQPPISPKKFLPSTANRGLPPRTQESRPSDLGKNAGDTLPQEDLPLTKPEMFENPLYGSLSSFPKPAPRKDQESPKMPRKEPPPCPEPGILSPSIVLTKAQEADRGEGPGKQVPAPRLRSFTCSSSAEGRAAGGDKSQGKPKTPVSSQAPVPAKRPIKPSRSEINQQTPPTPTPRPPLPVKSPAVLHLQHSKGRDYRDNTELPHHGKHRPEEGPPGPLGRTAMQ

SLAP2 = molecular target: T13, SLAP2 (Homo sapiens, UniProt Q9H6Q3)
T13 construct: made in house; host or cells: HEK293 (transient transfection), unpurified extract
T13 sequence (Q9H6Q3 1-261): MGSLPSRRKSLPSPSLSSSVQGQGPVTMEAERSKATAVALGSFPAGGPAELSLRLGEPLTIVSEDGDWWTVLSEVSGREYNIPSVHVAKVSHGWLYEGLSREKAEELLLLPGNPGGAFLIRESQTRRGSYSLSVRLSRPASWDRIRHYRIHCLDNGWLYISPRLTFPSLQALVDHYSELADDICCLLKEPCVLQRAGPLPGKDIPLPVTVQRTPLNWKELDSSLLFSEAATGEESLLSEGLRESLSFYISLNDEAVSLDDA

SRC = molecular target: T14, SRC (Homo sapiens, UniProt P12931)
T14 construct: made in house; host or cells: HEK293 (transient transfection), unpurified extract

STAT2 = molecular target: T15, STAT2 (Homo sapiens, UniProt P52630)
T15 construct: made in house; host or cells: HEK293 (transient transfection), unpurified extract

[1] = read-out: percent of DMSO vehicle control

T15 sequence (P52630 whole entry): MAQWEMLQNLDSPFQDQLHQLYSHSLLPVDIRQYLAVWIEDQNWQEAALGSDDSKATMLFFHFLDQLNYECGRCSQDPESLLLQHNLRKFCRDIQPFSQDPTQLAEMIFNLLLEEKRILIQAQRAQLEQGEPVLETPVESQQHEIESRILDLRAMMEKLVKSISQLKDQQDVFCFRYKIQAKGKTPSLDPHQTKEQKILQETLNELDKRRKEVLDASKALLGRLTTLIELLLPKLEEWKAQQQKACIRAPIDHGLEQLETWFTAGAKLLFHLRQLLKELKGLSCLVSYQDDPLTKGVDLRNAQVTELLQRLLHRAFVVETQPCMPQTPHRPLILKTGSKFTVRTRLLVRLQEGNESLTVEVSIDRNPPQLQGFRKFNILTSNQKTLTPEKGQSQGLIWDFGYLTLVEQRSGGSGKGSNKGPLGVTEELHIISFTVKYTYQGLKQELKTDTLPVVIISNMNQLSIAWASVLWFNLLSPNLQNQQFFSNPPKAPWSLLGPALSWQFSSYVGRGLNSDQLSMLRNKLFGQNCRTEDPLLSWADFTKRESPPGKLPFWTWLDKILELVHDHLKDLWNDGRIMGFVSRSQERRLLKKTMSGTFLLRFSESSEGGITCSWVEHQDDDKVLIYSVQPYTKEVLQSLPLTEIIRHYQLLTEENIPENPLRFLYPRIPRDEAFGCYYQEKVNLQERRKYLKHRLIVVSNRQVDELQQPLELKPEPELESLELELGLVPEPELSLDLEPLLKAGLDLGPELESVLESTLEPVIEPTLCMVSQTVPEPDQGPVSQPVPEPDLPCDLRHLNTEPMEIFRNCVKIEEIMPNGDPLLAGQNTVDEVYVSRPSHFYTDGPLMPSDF
T5 sequence (P06241 149-246 limits assumed): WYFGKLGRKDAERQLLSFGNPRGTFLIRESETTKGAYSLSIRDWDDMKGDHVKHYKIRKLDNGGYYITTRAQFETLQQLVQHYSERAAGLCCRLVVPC
T1 sequence (Q9HBL0 whole entry): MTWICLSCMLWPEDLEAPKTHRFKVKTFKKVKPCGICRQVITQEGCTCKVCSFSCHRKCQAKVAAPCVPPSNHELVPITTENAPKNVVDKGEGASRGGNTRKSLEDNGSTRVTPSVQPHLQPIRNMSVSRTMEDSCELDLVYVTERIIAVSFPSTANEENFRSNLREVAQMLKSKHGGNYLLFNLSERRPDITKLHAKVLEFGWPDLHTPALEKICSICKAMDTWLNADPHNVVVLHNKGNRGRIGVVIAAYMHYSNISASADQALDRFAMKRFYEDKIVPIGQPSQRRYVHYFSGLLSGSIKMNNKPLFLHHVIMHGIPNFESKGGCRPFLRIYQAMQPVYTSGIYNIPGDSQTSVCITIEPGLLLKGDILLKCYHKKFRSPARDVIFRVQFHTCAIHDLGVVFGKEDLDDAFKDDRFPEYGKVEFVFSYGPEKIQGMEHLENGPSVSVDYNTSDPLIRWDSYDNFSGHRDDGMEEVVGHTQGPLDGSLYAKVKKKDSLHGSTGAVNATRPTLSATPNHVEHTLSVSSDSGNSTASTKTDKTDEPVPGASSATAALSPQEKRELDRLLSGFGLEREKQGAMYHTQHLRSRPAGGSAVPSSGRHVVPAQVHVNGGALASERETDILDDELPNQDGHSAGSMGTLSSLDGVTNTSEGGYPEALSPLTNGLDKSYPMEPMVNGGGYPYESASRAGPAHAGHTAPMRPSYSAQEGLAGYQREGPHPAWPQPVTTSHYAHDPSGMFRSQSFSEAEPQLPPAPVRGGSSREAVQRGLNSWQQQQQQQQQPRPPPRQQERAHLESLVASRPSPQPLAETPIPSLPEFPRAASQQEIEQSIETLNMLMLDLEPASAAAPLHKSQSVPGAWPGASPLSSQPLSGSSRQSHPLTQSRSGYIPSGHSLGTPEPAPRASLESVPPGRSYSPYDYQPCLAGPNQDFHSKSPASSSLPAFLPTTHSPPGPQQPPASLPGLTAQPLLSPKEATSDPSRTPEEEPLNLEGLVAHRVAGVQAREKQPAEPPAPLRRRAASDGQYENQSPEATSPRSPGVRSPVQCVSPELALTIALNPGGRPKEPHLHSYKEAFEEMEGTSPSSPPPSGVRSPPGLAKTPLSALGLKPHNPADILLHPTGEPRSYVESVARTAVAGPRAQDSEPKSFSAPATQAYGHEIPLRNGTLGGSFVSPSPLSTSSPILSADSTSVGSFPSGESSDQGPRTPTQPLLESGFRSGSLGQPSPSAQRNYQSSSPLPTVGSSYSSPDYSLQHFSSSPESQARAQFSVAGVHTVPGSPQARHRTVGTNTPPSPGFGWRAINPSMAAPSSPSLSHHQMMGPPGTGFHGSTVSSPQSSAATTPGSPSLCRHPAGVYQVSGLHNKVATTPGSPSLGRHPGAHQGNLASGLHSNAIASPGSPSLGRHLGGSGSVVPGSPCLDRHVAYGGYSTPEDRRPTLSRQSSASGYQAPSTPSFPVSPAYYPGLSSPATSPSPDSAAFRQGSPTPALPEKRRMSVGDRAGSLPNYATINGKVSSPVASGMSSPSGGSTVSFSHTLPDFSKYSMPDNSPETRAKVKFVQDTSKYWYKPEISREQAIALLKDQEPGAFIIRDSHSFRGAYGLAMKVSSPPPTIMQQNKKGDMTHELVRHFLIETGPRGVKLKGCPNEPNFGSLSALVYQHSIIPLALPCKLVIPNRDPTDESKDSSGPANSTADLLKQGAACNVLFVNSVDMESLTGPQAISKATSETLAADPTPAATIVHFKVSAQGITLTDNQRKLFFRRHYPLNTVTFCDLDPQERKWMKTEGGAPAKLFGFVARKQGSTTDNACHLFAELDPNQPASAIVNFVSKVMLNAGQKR
T6 sequence (Q14451 431-527 limits assumed): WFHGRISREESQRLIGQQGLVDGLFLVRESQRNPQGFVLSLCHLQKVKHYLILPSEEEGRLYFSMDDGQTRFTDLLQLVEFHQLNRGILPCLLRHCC
T11 sequence (Q7Z4S9 whole entry): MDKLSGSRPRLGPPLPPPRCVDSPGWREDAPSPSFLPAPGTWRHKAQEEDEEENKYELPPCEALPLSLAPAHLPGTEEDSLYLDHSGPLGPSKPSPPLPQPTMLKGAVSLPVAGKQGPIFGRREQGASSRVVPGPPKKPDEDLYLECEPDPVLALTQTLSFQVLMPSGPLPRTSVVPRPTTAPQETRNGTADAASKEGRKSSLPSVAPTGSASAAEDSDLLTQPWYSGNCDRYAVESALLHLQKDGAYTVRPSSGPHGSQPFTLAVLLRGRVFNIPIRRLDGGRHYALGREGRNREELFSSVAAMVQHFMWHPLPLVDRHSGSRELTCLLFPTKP
T14 sequence (P12931 whole entry): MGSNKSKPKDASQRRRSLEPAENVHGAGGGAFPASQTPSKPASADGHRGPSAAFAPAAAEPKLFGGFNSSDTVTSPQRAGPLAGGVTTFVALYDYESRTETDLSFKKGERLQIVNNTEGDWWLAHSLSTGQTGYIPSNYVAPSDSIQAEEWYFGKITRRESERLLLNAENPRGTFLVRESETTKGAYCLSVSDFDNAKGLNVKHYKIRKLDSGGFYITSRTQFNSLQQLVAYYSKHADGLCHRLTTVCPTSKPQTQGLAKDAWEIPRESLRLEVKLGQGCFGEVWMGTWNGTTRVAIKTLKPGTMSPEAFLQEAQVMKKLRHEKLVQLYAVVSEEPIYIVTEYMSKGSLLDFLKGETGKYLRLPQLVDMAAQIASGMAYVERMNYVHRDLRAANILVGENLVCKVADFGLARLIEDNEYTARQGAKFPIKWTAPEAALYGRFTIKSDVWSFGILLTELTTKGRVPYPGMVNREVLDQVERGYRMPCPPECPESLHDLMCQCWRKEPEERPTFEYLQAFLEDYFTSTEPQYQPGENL
T2 sequence (P46108 13-118 limits assumed): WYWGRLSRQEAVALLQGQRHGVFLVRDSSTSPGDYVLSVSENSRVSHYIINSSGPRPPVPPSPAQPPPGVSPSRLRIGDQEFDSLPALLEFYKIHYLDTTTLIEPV
T9 sequence (O00459 330-425 limits assumed): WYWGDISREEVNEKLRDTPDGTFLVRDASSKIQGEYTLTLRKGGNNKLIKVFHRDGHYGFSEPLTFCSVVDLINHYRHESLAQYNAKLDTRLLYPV
T4 sequence (P09769 144-241 limits assumed): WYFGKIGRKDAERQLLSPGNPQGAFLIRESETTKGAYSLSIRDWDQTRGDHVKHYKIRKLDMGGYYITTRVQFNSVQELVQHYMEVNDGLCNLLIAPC
T7 sequence (P08631 144-241 limits assumed): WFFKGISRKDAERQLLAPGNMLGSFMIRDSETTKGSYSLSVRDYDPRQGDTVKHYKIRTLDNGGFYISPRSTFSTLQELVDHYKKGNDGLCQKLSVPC

CC[C@H](C)[C@H](NC(=O)[C@H](CO)NC(=O)[C@H](CC(C)C)NC(=O)[C@H](CCCNC(=N)N)NC(=O)[C@H](CO)NC(=O)[C@H](CS)NC(C)=O)C(=O)N[C@@H](Cc1ccc(OP(=O)(O)O)cc1)C(=O)N[C@@H](CC(=O)O)C(=O)N[C@@H](CC(N)=O)C(=O)N[C@H](C(=O)N1CCC[C@H]1C(=O)NCC(N)=O)C(C)C [Ac-CSRLSIpYDNVPG-NH2] (Ac-CSRLSI[pY]DNVPG-NH2)
Kd (TNS1): 1350 ± 530 nM

CC[C@H](C)[C@H](NC(=O)[C@H](CCC(=O)O)NC(=O)[C@H](CCC(=O)O)NC(=O)[C@H](Cc1ccc(OP(=O)(O)O)cc1)NC(C)=O)C(=O)N[C@@H](CCC(=O)O)C(N)=O [Ac-pYEEIE-NH2] (Ac-[pY]EEIE-NH2)
percent of DMSO vehicle control (CRK; primary screen, 10 μM): 114.0%
percent of DMSO vehicle control (CSK): 106.4%
percent of DMSO vehicle control (FGR; primary screen, 10 μM): 49.9±0.9%
Kd (FYN): 3300 nM
percent of DMSO vehicle control (FYN; primary screen, 10 μM): 21.2±2.5%
percent of DMSO vehicle control (GRB7; primary screen, 10 μM): 123.8%
percent of DMSO vehicle control (HCK; primary screen, 10 μM): 82.2%
percent of DMSO vehicle control (NCK1; primary screen, 10 μM): 90.1%
percent of DMSO vehicle control (PIK3R2(SH2dom.N-term.); primary screen, 10 μM): 74.1%
percent of DMSO vehicle control (PLCG1(SH2dom.N-term.); primary screen, 10 μM): 42.1%
percent of DMSO vehicle control (SH2D6; primary screen, 10 μM): 100.6%
percent of DMSO vehicle control (SHIP1): 79.4±1.4%
percent of DMSO vehicle control (SLAP2; primary screen, 10 μM): 202.8%
percent of DMSO vehicle control (SRC; primary screen, 10 μM): 68.6±4.6%
percent of DMSO vehicle control (STAT2; primary screen, 10 μM): 53.6±1.3%
percent of DMSO vehicle control (TNS1; primary screen, 10 μM): 161.1%

CC(=O)N[C@@H](Cc1ccc(CP(=O)(O)O)cc1)C(=O)NC1(C(=O)N[C@@H](CC(N)=O)C(=O)NCCCc2c(O)ccc3ccccc23)CCCCC1 [CGP78850]
percent of DMSO vehicle control at 10 µM (CRK; [1]): 88.3 ± 0.9%
percent of DMSO vehicle control (CSK): 119.6±4.5%
remaining activity at 10 µM (FGR; [1]): 43.3 ± 1.3%
percent of DMSO vehicle control at 10 µM (FYN; [1]): 53.7 ± 4.6%
Kd (GRB7): 5.2 nM
percent of DMSO vehicle control at 10 µM (GRB7; [1]): 0%
remaining activity at 10 µM (HCK; [1]): 60 ± 12.1%
remaining activity at 10 µM (NCK1; [1]): 104 ± 4.8%
remaining activity at 10 µM (PIK3R2(SH2dom.N-term.); [1]): 141 ± 24.2%
remaining activity at 10 µM (PLCG1(SH2dom.N-term.); [1]): 109 ± 14.6%
remaining activity at 10 µM (SH2D6; [1]): 89.5 ± 8.4%
percent of DMSO vehicle control (SHIP1): 77.7±20.9%
remaining activity at 10 µM (SLAP2; [1]): 91.4 ± 15.3%
remaining activity at 10 µM (SRC; [1]): 99.2 ± 4.1%
KD (STAT2; dose-response): No Hit
percent of DMSO vehicle control at 10 µM (STAT2; [1]): 27.3%
Kd (TNS1): 408 nM
percent of DMSO vehicle control at 10 µM (TNS1; [1]): 16.4 ± 0.3%
